{"source": "paper PMC9897788", "about": "“Design, synthesis and cytotoxic evaluation of novel bis-thiazole derivatives as preferential Pim1 kinase inhibitors with in vivo and in silico study” (Journal of Enzyme Inhibition and Medicinal Chemistry, 2023)", "key": {"Pim1": {"test_system": "Pim1", "set-up": "method as in PMID 25575657", "settings": "cited from earlier work"}, "Pim2": {"test_system": "Pim2", "set-up": "method as in PMID 25575657", "settings": "cited from earlier work"}, "Pim3": {"test_system": "Pim3", "set-up": "method as in PMID 25575657", "settings": "cited from earlier work"}, "Ehrlich solid carcinoma": {"test_system": "Ehrlich solid carcinoma", "assay": "In vivo cytotoxicity study, Ehrlich solid carcinoma model", "set-up": "species or system male Swiss albino mice", "settings": "i.p. once weekly for 3 weeks, 8b 1 mg/kg, 3b 1.4 mg/kg, doxorubicin 2 mg/kg; for VEGF expression by immunohistochemistry / caspase-3 expression by immunohistochemistry: Ehrlich solid tumour tissue; for Histopathological examination of Ehrlich solid tumour (H&E): mice", "method": "The National Cancer Institute (Cairo, Egypt) provided the 48 male Swiss albino mice utilised in this study, which ranged in weight from 25 to 30 g. Prior to the experiment, mice were given a week to settle into their new environment. A constant 23 °C temperature, 60% humidity, and a 12/12 light/dark cycle were maintained in stainless steel cages. Each cage housed five mice with a plenty of nourishing food and refreshing water were served. This in vivo study was approved from the ethical committee of the Azhar University, Faculty of Medicine, Egypt.\nA female mouse with an 8-day-old ascetic tumour was obtained from the National Cancer Institute on the day of induction, and Ehrlich ascites carcinoma (EAC) cells were isolated from the ascetic fluid of the animal (day 0). Then, regular saline was used to dilute the ascetic fluid (1:10). Each mouse received a subcutaneous injection of 0.2 ml of ascetic fluid containing 2.5 × 10^6 EAC cells in the right thigh of the hind limb to induce Ehrlich solid-phase cancer.\nOn day 11 following ESC inoculation, tumour formation was observed as a solid mass expanding in the right thigh of each animal. The mice were then randomly divided into four groups (n = 6) • Group (1) acted as the […] control group and mice received an i.p. DMSO (2 mg/kg/once weekly) for 3 weeks. • Group (2) (Doxorubicin Group) mice received an i.p. dose of doxorubicin (2 mg/kg/once weekly) for 3 weeks. • Group (3) mice were given an i.p. dose of 8b compound (1 mg/kg/once weekly) for 3 weeks, • Group (4) mice were given an i.p. dose of 3b compound (1.4 mg/kg/once weekly) for 3 weeks.\nTwo days after the last dose of therapy, blood was drawn from the mice’s orbital canthus, and serum was separated and stored at −80 °C for upcoming biochemical investigations. Following the cervical dislocation method of euthanasia, tumour samples from each mouse were collected and preserved in neutral buffered formalin at a 10% concentration for immunohistochemistry and histopathology studies. Histological preparations were performed according to the reported method. Slices of Ehrlich tumour were cut to a thickness of 3–4 mm before being fixed in 10% neutral buffered formalin (10% NBF), dehydrated through a series of ethanol solutions, cleaned in xylene, and finally embedded in paraffin. To examine the overall tissue architecture, sections ([…]) thick were cut from paraffin blocks using a microtome and stained with haematoxylin and eosin. We used a Leica microscope (CH9435 Hee56rbrugg) to look at H&E-stained tissue sections (Leica Microsystems, Switzerland).\nThe avidin–biotin–peroxidase complex (ABC) method was used to do immunohistochemistry on paraffin sections that were put on positively charged slides. Rabbit Anti-VEGF Receptor 2 Polyclonal Antibody (Elabscience Cat# E-AB-63481, Dil.: 1:100) and Rabbit Monoclonal anti-caspase-3 antibody, active (cleaved) form (Sigma Aldrich Catalog # AB3623)[41], were utilised during this IHC assessment. Each group’s sections were treated with the previously specified antibodies, after which the ABC technique reagents (Vectastain ABC-HRP kit, Vector labs) were applied. To locate the antigen–antibody combination, marker expression was stained with diaminobenzidine (DAB, manufactured by Sigma) and labelled with peroxidase. In order to conduct negative controls, non-immune serum was substituted for the primary or secondary antibodies. IHC-stained sections were assessed using a Leica (CH9435 Hee56sbrugg) microscope (Leica Microsystems, Switzerland).\nUsing one-way analysis of variance (ANOVA) followed by Tukey’s post-hoc test, the difference between experimental groups was analysed. All data are presented as mean ± standard deviation (SD). All comparisons were judged statistically significant when the p values ≤ 0.05. ImageJ (NIH Image J system, Bethesda, MD) was used for the analysis of immunohistochemistry photos."}, "rat glioma": {"test_system": "rat glioma", "set-up": "method as in PMID 20036563, PMID 26890114", "settings": "against rat glioma; read-out: antitumor activity IC50; cited from earlier work"}, "leukaemia": {"test_system": "leukaemia", "set-up": "method as in PMID 20036563, PMID 26890114", "settings": "against leukaemia; read-out: antitumor activity IC50; cited from earlier work"}, "Pim1 gene": {"test_system": "Pim1 gene", "set-up": "method as in PMID 34458233", "settings": "quantitative RT-PCR; cited from earlier work"}, "HepG2": {"test_system": "HepG2", "set-up": "method as in PMID 20036563, PMID 26890114", "settings": "cell line not clearly printed, probably HepG2; read-out: antitumor activity IC50; cited from earlier work"}}}
{"smiles": "O=C(Nc1cnccc1OC1CCNCC1)c1csc(-c2c(F)cccc2F)n1", "note": "[VIIIa]", "values": [{"measurement": "IC50", "setting": "Pim1", "value": 0.001, "unit": "µM"}, {"measurement": "IC50", "setting": "Pim2", "value": 0.018, "unit": "µM"}, {"measurement": "IC50", "setting": "Pim3", "value": 0.001, "unit": "µM"}]}
{"smiles": "COc1cccc2c1C(=O)c1c(O)c3c(c(O)c1C2=O)C[C@@](O)(C(=O)CO)C[C@@H]3O[C@H]1C[C@H](N)[C@H](O)[C@H](C)O1", "note": "[Doxorubicin, doxorubicin, reference compound]", "values": [{"measurement": "VEGF expression by immunohistochemistry", "setting": "Ehrlich solid carcinoma", "value": "low expression of VEGF"}, {"measurement": "caspase-3 expression by immunohistochemistry", "setting": "Ehrlich solid carcinoma", "value": "moderate caspase-3 expression"}, {"measurement": "VEGF expression by immunohistochemistry", "setting": "Ehrlich solid carcinoma; listed as DOX", "value": "moderate"}, {"measurement": "caspase-3 expression by immunohistochemistry", "setting": "Ehrlich solid carcinoma; listed as DOX", "value": "positive caspase3 immunoreactivity"}, {"measurement": "Histopathological examination of Ehrlich solid tumour (H&E)", "setting": "Ehrlich solid carcinoma", "value": "small clusters of cancerous cells"}, {"measurement": "Histopathological examination of Ehrlich solid tumour (H&E)", "setting": "Ehrlich solid carcinoma; listed as doxorubicin", "value": "large region of necrotic muscle tissue surrounded by small clusters of cancerous cells"}]}
{"smiles": "COc1cc(-c2ccc(Nc3nc(-c4ccc(Br)cc4)cs3)c(OC)c2)ccc1Nc1nc(-c2ccc(Br)cc2)cs1", "note": "[III]", "values": [{"measurement": "IC50", "setting": "rat glioma", "value": 15.7, "unit": "µM"}]}
{"smiles": "Cc1sc(=N)n(-c2cccc(-n3c(-c4ccc(Cl)cc4)c(C)sc3=N)c2)c1-c1ccc(Cl)cc1", "note": "[VI]", "values": [{"measurement": "IC50", "setting": "leukaemia", "value": 1.46, "unit": "µM"}]}
{"smiles": "Cc1[nH]/c(=N/N=C2CCC(=N/N=c3/[nH]c(C)c(/N=N/c4ccccc4)s3)CC2)sc1/N=N/c1ccccc1", "note": "[IXa]", "values": [{"measurement": "fold of change in Pim1 kinase activity (mRNA expression of Pim1 gene)", "setting": "Pim1 gene", "value": 0.4, "unit": "fold"}]}
{"smiles": "Cc1ccc(/N=N/c2s/c(=N\\N=C3CCC(=N/N=c4/[nH]c(C)c(/N=N/c5ccc(C)cc5)s4)CC3)[nH]c2C)cc1", "note": "[IXb]", "values": [{"measurement": "fold of change in Pim1 kinase activity (mRNA expression of Pim1 gene)", "setting": "Pim1 gene", "value": 0.5, "unit": "fold"}]}
{"smiles": "O=C(Nc1cnccc1OC1CCCCC1)c1csc(-c2c(F)cccc2F)n1", "note": "[VIIIb]", "values": [{"measurement": "IC50", "setting": "Pim1", "value": 0.001, "unit": "µM"}, {"measurement": "IC50", "setting": "Pim2", "value": 0.25, "unit": "µM"}]}
{"smiles": "CNc1nc(C)c(/C(C)=N\\c2nc(C)c(/N=N/c3ccccc3)s2)s1", "note": "[IV]", "values": [{"measurement": "IC50", "setting": "HepG2", "value": 13.2, "unit": "µM"}]}
{"smiles": "Cc1[nH]/c(=N/N=C2CCC(=N/N=c3/[nH]c(C)c(/N=N/c4ccccc4Cl)s3)CC2)sc1/N=N/c1ccccc1Cl", "note": "[IXc]", "values": [{"measurement": "fold of change in Pim1 kinase activity (mRNA expression of Pim1 gene)", "setting": "Pim1 gene", "value": 0.3, "unit": "fold"}]}
